Experimental data published in patent publication US20240294465A1, “NOVEL ANTI-FIBROTIC DRUGS” (HELMHOLTZ ZENTRUM MUNCHEN - DEUTSCHES FORSCHUNGSZENTRUM FUR …, priority 2021, published 2024).

System: TGFβ1-induced fibulin-1 ECM deposition in primary human lung IPF-fibroblasts (phLFs)
Assay: Assessing N23P activity in inhibiting ECM deposition in IPF-fibroblasts (fibulin-1 MFI)
Format: cell-based
Conditions: Homo sapiens, 72 h, 10 μM, TGFβ1 1 ng/ml, MFI, one or two different IPF-phLFs (n=1-2)
Experimental: phLFs were cultured in DMEM F-12 medium with 20% fetal bovine serum (FBS) and antibiotic supplement as mentioned above. Cells were seeded with 6000 cells/well in 384-well CellCarrier plates (Perkin Elmer, Cat #6007550). Following overnight incubation, cells were starved in serum-reduced medium (1% FBS with 0.1 mM 2-phosphoascorbate (Sigma, Cat #49752)) for 24 h. Afterwards, cells were treated with TGFβ1 (1 ng/ml) or vehicle, and additionally small molecules or appropriate vehicle controls were added. After 72 h of incubation, medium was changed for starving medium with 1 μg/mL AlexaFluor-488 fluorophore conjugated anti-collagen-type-5 antibodies (SantaCruz, Clone C-5, Cat #sc-166155 AF488), 0.66 μg/mL AlexaFluor-555 fluorophore conjugated anti-collagen-type-1 antibodies (Rockland, Cat #600-401-103-0.1), and 1 μg/mL AlexaFluor-637 fluorophore conjugated anti-fibulin 1 antibodies (SantaCruz, Clone C-5, Cat #sc-25281 AF647) and 1 μg/mL Hoechst H33342 (Sigma). Fluorescenceconjugation of the collagen type 1 antibody was done by using the AlexaFluor-555 Protein Labeling Kit (Invitrogen, Cat #A20174) according to manufacturer's instructions. Labeling efficacy was controlled by photometrical means.
Following four hours of incubation, cells were washed three times with PBS and fixed with paraformaldehyde (PFA). For automated liquid handling in 384 well plates, an INTEGRA Assist Plus (INTEGRA, Zizers, Switzerland) equipped with an INTEGRA Viaflo 1I pipette (INTEGRA, Zizers, Switzerland, Cat #4642), 125 μL GripTips™ pipette tips (INTEGRA, Zizers, Switzerland, Cat #6464) and sterile reagent reservoirs (INTEGRA, Cat #4311) were applied. All automated pipetting steps with the INTEGRA Assist Plus were performed at 9.5 μL/s in order to ensure proper integrity and attachment of the deposited ECM to the culturing surface within the wells of the 384-well plates. During cell seeding the automated liquid handling was performed at 89.3 μL/s. Removal of liquids from the well-plates was done by manually inverting the plates.
Following fixation, the automated imaging was achieved by using aconfocal laser scanning microscope (LSM710, Zeiss) with automated focus detection for three-dimensional image acquisition (1024 px×1024 px×9 px which equals a dimension of 1417 μm×1417 μm×16 μm). For post-acquisition analysis images were imported into IMARIS software (Bitplane) and volume detection or alternatively quantification of the mean fluorescence intensity, as well as Hoechst-stained cell nuclei were automatically counted by using Imaris' spot detection algorithm.
Cells were seeded with 6000 cells/well in 384-well CellCarrier plates. After overnight incubation, cells were starved in serum-reduced medium (1% FBS with 0.1 mM 2-phosphoascorbate for 24 h). Then, phLFs were treated with TGFβ1 (1 ng/ml) or vehicle, and incubated together with synthesized N23Ps (10 μM) or appropriate vehicle controls. After 72 h of incubation, medium was changed for starvation medium with 1 μg/mL AlexaFluor-637 fluorophore conjugated anti-fibulin 1 antibodies (SantaCruz, Clone C-5, Cat #sc-25281 AF647) and 1 μg/mL Hoechst H33342 (Sigma). Following four hours of incubation, cells were washed three times with PBS and fixed with paraformaldehyde (PFA). Following fixation, the automated imaging was achieved by using a confocal laser scanning microscope (LSM710, Zeiss) with automated focus detection for three-dimensional image acquisition (1024 px×1024 px×9 px which equals a dimension of 1417 μm×1417 μm×16 μm). For post-acquisition analysis images were imported into IMARIS software (Bitplane) and quantified for the mean fluorescence intensity, as well as Hoechst-stained cell nuclei were automatically counted by using Imaris' spot detection algorithm.
Assessment of ECM inhibition I: Mean fluorescence intensity (MFI) values represented the degree of fibulin-1 ECM deposition in three different IPF-phLFs (n=3). […]

`CCCCOc1ccccc1NC(=O)/C=C/c1ccc2c(c1)OC(F)(F)O2` [Example 6] and `CCCCOc1ccccc1NC(=O)/C=C/c1ccc2c(c1)CCC(C)(C)O2` [Example 63] fall in the same range of inhibition at 10 µM: 20 to 60% for the first, 20 to 60% for the second.

Compared with `C#CCCOc1ccccc1NC(=O)/C=C/c1ccc(OC)cc1` [Example 46, (E)-N-(2-(but-3-yn-1-yloxy)phenyl)-3-(4-methoxyphenyl)acrylamide], `COc1ccc(/C=C/C(=O)Nc2ccccc2OCCC(F)(F)F)cc1` [Example 155, (E)-3-(4-methoxyphenyl)-N-(2-(3,3,3-trifluoropropoxy)phenyl)acrylamide] is higher in inhibition at 10 µM: 20 to 60% for the first, 60 to 90% for the second.

`COc1ccc(/C=C/C(=O)Nc2ccccc2OCCCC2CC2)cc1` [Example 60, (E)-N-(2-(3-cyclopropylpropoxy)phenyl)-3-(4-methoxyphenyl)acrylamide] and `CCCCOc1ccccc1NC(=O)/C=C/c1ccc(S(C)(=O)=O)cc1` [Example 153, (E)-N-(2-butoxyphenyl)-3-(4-(methylsulfonyl)phenyl)acrylamide] cannot be ordered by inhibition at 10 µM: > 90% for the first, > 90% for the second.

First: CCCCOc1ccccc1NC(=O)/C(=C/c1ccc(OC)cc1)C(C)C [Example 82, (E)-N-(2-butoxyphenyl)-2-(4-methoxybenzylidene)-3-methylbutanamide]
Second: C#CCCCOc1ccc(/C=C/C(=O)Nc2ccccc2OCCCC)cc1 [Example 83, (E)-N-(2-butoxyphenyl)-3-(4-(pent-4-yn-1-yloxy)phenyl)acrylamide]
The inhibition at 10 µM of the first is lower: 20 to 60% for the first, > 90% for the second.

`O=C(/C=C/c1ccc2c(c1)OC(F)(F)O2)Nc1ccc(F)c(F)c1OCCC1CC1` [Example 156, (E)-N-(2-(2-cyclopropylethoxy)-3,4-difluorophenyl)-3-(2,2-difluorobenzo[d][1,3]dioxol-5-yl)acrylamide] and `CCCCOc1c(NC(=O)/C=C/c2ccc3sc(C)nc3c2)ccc(F)c1F` [Example 162, (E)-N-(2-butoxy-3,4-difluorophenyl)-3-(2-methylbenzo[d]thiazol-5-yl)acrylamide] fall in the same range of inhibition at 10 µM: 60 to 90% for the first, 60 to 90% for the second.

First: CCCCOc1ccccc1NC(=O)/C=C/c1ccc2[nH]c(C)nc2c1 [Example 161, (E)-N-(2-butoxyphenyl)-3-(2-methyl-1H-benzo[d]imidazol-5-yl)acrylamide]
Second: CCCCOc1ccccc1NC(=O)/C=C/c1ccc2nonc2c1 [Example 166, (E)-3-(benzo[c][1,2,5]oxadiazol-5-yl)-N-(2-butoxyphenyl)acrylamide]
The inhibition at 10 µM of the first is higher: > 90% for the first, 20 to 60% for the second.

Work on `CCCCOc1c(NC(=O)/C=C/c2ccc3[nH]ccc3c2)ccc(F)c1F` [Example 163, (E)-N-(2-butoxy-3,4-difluorophenyl)-3-(1H-indol-5-yl)acrylamide] yielded an inhibition at 10 µM of 20 to 60%.

Same assay, conditions: Homo sapiens, 72 h, 10 μM, TGFβ1 1 ng/ml, MFI, three different IPF-phLFs (n=3)

`CCCCOc1ccccc1NC(=O)/C=C/c1ccc(OCC(F)(F)F)cc1` [Example 2, (E)-N-(2-butoxyphenyl)-3-(4-(2,2,2-trifluoroethoxy)phenyl)acrylamide] and `CCCCOc1ccccc1NC(=O)/C=C/c1ccc(OCC)cc1` [Example 20, (E)-N-(2-butoxyphenyl)-3-(4-ethoxyphenyl)acrylamide] fall in the same range of inhibition at 10 µM: 60 to 90% for the first, 60 to 90% for the second.

`COc1ccc(/C=C/C(=O)Nc2ccccc2Oc2ccccc2)cc1` [Example 3, (E)-3-(4-methoxyphenyl)-N-(2-phenoxyphenyl)acrylamide] and `COc1ccc(/C=C/C(=O)Nc2ccccc2OCc2ccccc2)cc1` [Example 12, (E)-N-(2-(benzyloxy)phenyl)-3-(4-methoxyphenyl)acrylamide] cannot be ordered by inhibition at 10 µM: > 90% for the first, > 90% for the second.

`COc1ccc(/C=C/C(=O)Nc2ccccc2OCc2ccc(F)cc2)cc1` [Example 5, (E)-N-(2-((4-fluorobenzyl)oxy)phenyl)-3-(4-methoxyphenyl)acrylamide] and `COc1ccc(/C=C/C(=O)Nc2ccccc2OCc2ccc(Cl)cc2)cc1` [Example 45, (E)-N-(2-((4-chlorobenzyl)oxy)phenyl)-3-(4-methoxyphenyl)acrylamide] cannot be ordered by inhibition at 10 µM: > 90% for the first, > 90% for the second.

First: CCCCOc1ccccc1NC(=O)/C=C/c1ccc2c(c1)OC(F)(F)O2 [Example 6]
Second: CCCCOc1ccccc1NC(=O)/C=C/c1ccc2c(c1)CCO2 [Example 34, (E)-N-(2-butoxyphenyl)-3-(2,3-dihydrobenzofuran-5-yl)acrylamide]
The inhibition at 10 µM of the first is lower: 60 to 90% for the first, > 90% for the second.

First: CCCCOc1ccccc1NC(=O)/C=C/c1cccc(OC)c1 [Example 7, (E)-N-(2-butoxyphenyl)-3-(3-methoxyphenyl)acrylamide]
Second: CCCCOc1ccccc1NC(=O)/C=C/c1ccc2occc2c1 [Example 37, (E)-3-(benzofuran-5-yl)-N-(2-butoxyphenyl)acrylamide]
The inhibition at 10 µM of the first is lower: 60 to 90% for the first, > 90% for the second.

First: CCCCOc1ccccc1NC(=O)/C=C/c1ccc(OC(F)F)cc1 [Example 11, (E)-N-(2-butoxyphenyl)-3-(4-(difluoromethoxy)phenyl)acrylamide]
Second: COc1ccc(/C=C/C(=O)Nc2ccccc2OCCCC(F)(F)F)cc1 [Example 29, (E)-3-(4-methoxyphenyl)-N-(2-(4,4,4-trifluorobutoxy)phenyl)acrylamide]
The inhibition at 10 µM of the first is higher: 60 to 90% for the first, 20 to 60% for the second.

Compared with `CCCCOc1c(NC(=O)/C=C/c2ccc(OC)cc2)ccc(F)c1F` [Example 13], `CCCCOc1cc(Cl)ccc1NC(=O)/C=C/c1ccc(OC)cc1` [Example 21, (E)-N-(2-butoxy-4-chlorophenyl)-3-(4-methoxyphenyl)acrylamide] is lower in inhibition at 10 µM: > 90% for the first, 20 to 60% for the second.

First: CCCCOc1cc(F)ccc1NC(=O)/C=C/c1ccc(OC)cc1 [Example 31, (E)-N-(2-butoxy-4-fluorophenyl)-3-(4-methoxyphenyl)acrylamide]
Second: COc1ccc(/C=C/C(=O)Nc2ccccc2OCCC2CC2)cc1 [Example 38, (E)-N-(2-(2-cyclopropylethoxy)phenyl)-3-(4-methoxyphenyl)acrylamide]
The inhibition at 10 µM of the first is lower: 60 to 90% for the first, > 90% for the second.

First: CCCCOc1ccccc1NC(=O)/C=C/c1cc(F)c(OC)c(F)c1 [Example 33, (E)-N-(2-butoxyphenyl)-3-(3,5-difluoro-4-methoxyphenyl)acrylamide]
Second: C#CCCCOc1ccc(/C=C/C(=O)Nc2ccccc2OCCCC)cc1 [Example 83, (E)-N-(2-butoxyphenyl)-3-(4-(pent-4-yn-1-yloxy)phenyl)acrylamide]
The inhibition at 10 µM of the first is lower: 60 to 90% for the first, > 90% for the second.

First: CCCCOc1cccc(Cl)c1NC(=O)/C=C/c1ccc(OC)c(OC)c1 [Example 36, (E)-N-(2-butoxy-6-chlorophenyl)-3-(3,4-dimethoxyphenyl)acrylamide]
Second: CCCCOc1ccccc1N(C)C(=O)/C=C/c1ccc(OC)c(OC)c1 [Example 67]
The inhibition at 10 µM of the first is lower: 60 to 90% for the first, > 90% for the second.

`COc1ccc(/C=C/C(=O)Nc2ccccc2Oc2ccc(Cl)cc2)cc1` [Example 39, (E)-N-(2-(4-chlorophenoxy)phenyl)-3-(4-methoxyphenyl)acrylamide] and `COc1ccc(/C=C/C(=O)Nc2ccccc2Oc2ccccc2F)cc1` [Example 43, (E)-N-(2-(2-fluorophenoxy)phenyl)-3-(4-methoxyphenyl)acrylamide] fall in the same range of inhibition at 10 µM: 60 to 90% for the first, 60 to 90% for the second.

Compared with `CCCCOc1ccccc1N(C)C(=O)/C=C/c1ccc(OCC)cc1` [Example 71, (E)-N-(2-butoxyphenyl)-3-(4-ethoxyphenyl)-N-methylacrylamide], `CCCCOc1ccccc1N(Cc1ccccc1)C(=O)/C=C/c1ccc(OC)cc1` [Example 75, (E)-N-benzyl-N-(2-butoxyphenyl)-3-(4-methoxyphenyl)acrylamide] is higher in inhibition at 10 µM: 20 to 60% for the first, > 90% for the second.

`CCCCOc1ccccc1NC(=O)/C(C)=C/c1ccc(OC)cc1` [Example 79, (E)-N-(2-butoxyphenyl)-3-(4-methoxyphenyl)-2-methylacrylamide] was tested, and the inhibition at 10 µM was 60 to 90%.
